Data published in US9399145B2, “Nanoscale neuromodulating platform for retina neuron activation apparatus and method” (The Board of Trustees of the University of Illinois, priority 2005, dated 2016).
Blank lines part the entries; values can stand above or below the compound they belong to.

Legend:
[1] = molecular target: T1, α1β2γ2 GABAARs (rat α1, rat β2 and human γ2S) (UniProt P18507+P62813+P63138); assay: Two-electrode voltage clamp of α1β2γ2 GABAAR-expressing Xenopus oocytes; assay type: cell-based; conditions: for potentiation of the GABA response: co-applied 3 μM GABA, MPC088 1 μM, MPD021 10 or 100 μM, MPC100 10 μM; for electrophysiological activity of propofol analogs (FIG. 59), words: Xenopus oocyte expression system
T1 construct: expressed in transfected cells; host or cells: Xenopus laevis oocytes
Source text: Purple and gray bars indicate periods of presentation of UV light (purple) and high-intensity visible light (High-Vis) (gray), respectively. […] These amplitude determination conditions are denoted by numbers beneath the waveform in FIG. 35d.
In each of the MPC088 experiments, the cis-dominant form was generated by UV light during static bathing. […] Numbers beneath the waveform in FIG. 2(c) denote amplitude determination conditions for that experiment.
(§1) Oocytes expressing α1β2γ2 receptors (rat α1, rat β2 and human γ2S) were prepared and studied by two-electrode voltage-clamp recording^58 (holding potential: −70 mV; amplifier: GeneClamp500B; Axon Instruments, Foster City, Calif.). Unless otherwise indicated, oocytes were superfused with Ringer solution (physiological saline) at a rate of ˜1 mL/min. The experiments of FIGS. 35d-e, 36c-e and 47 involved periods of static bathing, i.e., halted superfusion. The γ2(A79C) subunit was prepared by site-directed mutagenesis. Oocyte electrophysiological experiments were carried out in room light. A UV light-emitting diode (peak wavelength: 365 nm; Hamamatsu Photonics, Japan) and a microscope illuminator (white light; Schott Fostec, Auburn, N.Y.) provided UV and visible stimulating light. As measured at the position of the oocyte, the intensity of the UV light at 365 nm was 220 μW/mm^2. At 440 nm, the nominal strength of the visible (white) light (referred to as high-intensity visible light) was 28 μW/mm^2, and that of the ambient room illumination was 0.045 μW/mm^2. In all experiments, low-intensity visible light from the microscope illuminator (3 μW/mm^2 at 440 nm) was present at all times except those involving high-intensity visible illumination. Electrophysiological data were obtained using Clampex 8.2 (Axon Instruments), analyzed using Clampfit 10.0 (Axon Instruments) and OriginPro7.5 (OriginLab, Northampton, Mass.). All statistical analysis employed a two-sample t-test.

[2] = molecular target: T2, α1β2γ2(A79C) GABAARs (γ-79C) (UniProt P18507+P62813+P63138, A118C); assay: Tethering to γ-79C GABAAR-expressing oocytes, voltage clamp; assay type: cell-based, rat, human
T2 construct: expressed in transfected cells; host or cells: Xenopus laevis oocytes
Experimental: as §1, with “μW/mm^2.” for “μW/mm^2. In all experiments, low-intensity visible light from the microscope illuminator (3 μW/mm^2 at 440 nm) was present at all times except those involving high-intensity visible illumination. Electrophysiological data were obtained using Clampex 8.2 (Axon Instruments), analyzed using Clampfit 10.0 (Axon Instruments) and OriginPro7.5 (OriginLab, Northampton, Mass.). All statistical analysis employed a two-sample t-test.”

[3] = molecular target: T3, GABAc receptors (Homo sapiens, UniProt P24046); assay: Two-electrode voltage clamp of GABAc-expressing Xenopus oocytes; assay type: cell-based; conditions: for Hill coefficient n: Hill fit of normalized peak amplitudes; for EC50: Hill fit of peak amplitudes normalized to saturating muscimol response
T3 construct: expressed in transfected cells; host or cells: Xenopus oocytes
Source text: (§2) Muscimol-biotin was synthesized wherein biotinamidoeaproic acid N-hydroxysuccinimide ester was reacted with muscimol in N-methylpyrrolidinone in the presence of diisopropylethylamine. The product was purified to homogeneity by reversed-phase HPLC. Peaks were detected by absorbance at 210 nm (FIG. 5), collected, and lyophilized to afford muscimol-biotin. The muscimol-biotin product was judged to be 97% pure by ^IH NMR spectroscopy, with no detectable contamination of the HPLC-purified product peak by muscimol (limit of detection: ca. 1%). Muscimol-biotin was dissolved in DMSO, stored at 3° C., and diluted to desired concentrations in frog Ringer before testing on the oocyte. Electrophysiology procedures used for Xenopus oocyte preparation, including GABAc expression, followed those described previously (Qian et al., 1998). Membrane currents were recorded from GABAc-expressing oocytes by 2-electrode voltage clamp apparatus. FIGS. 6-7 show results obtained for muscimol-biotin in GABAc and GABAA expressing oocytes.
(§3) FIGS. 6 and 7 show the effects of muscimol-biotin on GABAc- and GABAA expressing Xenopus oocytes. […] Right (FIG. 7): GABAA receptors. […] (B) Responses of another oocyte to 2.5 μM muscimol-biotin alone, and to co-application of 2.5 μM muscimol-biotin and 100 μM bicuculline. (C) Family of responses to varying concentrations of muscimol-biotin and to a single, saturating concentration of muscimol (200 μM thick trace) recorded from a single oocyte. (D) Normalized peak amplitudes (mean±SEM) of responses recorded from GABAA-expressing oocytes upon the application of muscimol (open circles) and muscimol-biotin (filled circles) (n=9).

[4] = tested on: GABAA receptors; assay: Two-electrode voltage clamp of GABAA-expressing Xenopus oocytes; assay type: cell-based; conditions: for Hill coefficient n: Hill fit of normalized peak amplitudes; for EC50: Hill fit of peak amplitudes normalized to saturating muscimol response
Source text: as §2, §3

[5] = tested on: GABAARs of retinal ganglion cells; assay: Whole-cell patch clamp of isolated retinal ganglion cells; assay type: cell-based, rat; conditions: co-applied 100 μM PTX
Experimental: To test whether native neuronal GABAARs respond to MPC088, retinal ganglion cells (RGCs), a cell type known to abundantly express GABAARs (Ishida et al. (1988); Fischer et al. (1998); Wässle et al. (1998); Rotolo et al. (2003)), were examined. […] The cis-dominant preparation was obtained by pre-treating trans-dominant MPC088 with UV light for 5 min.
Inset: Aggregate data for direct activation by MPC088.
Experiments were conducted on enzymatically dissociated ganglion cells obtained from adult Sprague-Dawley rats (male and female, 6-16 weeks of age) (Charles River Laboratories, Wilmington, Mass.). Procedures for euthanasia, isolation of the retina, and the dissociation of retinal cells were as described previously (Ramsey et al. (2007) except that the period of retinal cell dissociation was shortened from 40 min to 20 min. Isolated ganglion cells were identified on the basis of their morphological appearance and the presence of a large voltage-gated sodium current. Whole-cell patch-clamp techniques similar to those described (Ramsey et al. (2007)) were used to record membrane current responses to test agents. The patch pipette with a resistance of 8-12 MΩ was pulled in two stages using a micro-electrode puller (Model PP830, Narishige Group, Tokyo, Japan). The pipette was filled with an intracellular solution containing 95 mM CsCH3SO3, 20 mM TEA-Cl, 10 mM glutamic acid, 1 mM BAPTA, 10 mM HEPES, 8 mM phosphocreatine di(tris), 1 mM MgATP and 0.2 mM Na2GTP; pH adjusted to 7.2 with CsOH. Cells were clamped at 0 mV (Axopatch 200B amplifier; Axon Instruments), and experimental runs were controlled by pCLAMP system software (Axon Instruments). Electrophysiological data were obtained in response to test compounds dissolved in physiological saline (Ringer solution) that consisted of 135 mM NaCl, 5 mM KCl, 2 mM CaCl2, 2 mM MgCl2, 10 mM glucose, and 5 mM HEPES, pH 7.4. Supplementation of aqueous test solutions with MPC088 was carried out by adding an aliquot of a stock solution containing the compound dissolved in dimethyl sulfoxide (DMSO). In all experiments, the amount of carrier DMSO present in the applied test solution was <1% (v/v). Test solutions were delivered from separate reservoirs by a multi-channel perfusion system. The same UV-LED used in the oocyte experiments was used for UV illumination of MPC088-supplemented test solutions. For preparation of cis-dominant MPC088, the test solution of initially trans-dominant compound underwent a 5-min UV illumination prior to its placement in the perfusion reservoir. All preparative procedures were performed in the dark, and the reservoirs and perfusion lines were light-protected with aluminum foil. As in the oocyte experiments, data were analyzed with Clampfit and plotted with Origin. Unless otherwise stated, numerical data from replicate experiments are presented as mean±SD, and all statistical analyses of data obtained from oocytes and from retinal ganglion cells employed a two-sample t-test.

T3 sequence (P24046 22-479): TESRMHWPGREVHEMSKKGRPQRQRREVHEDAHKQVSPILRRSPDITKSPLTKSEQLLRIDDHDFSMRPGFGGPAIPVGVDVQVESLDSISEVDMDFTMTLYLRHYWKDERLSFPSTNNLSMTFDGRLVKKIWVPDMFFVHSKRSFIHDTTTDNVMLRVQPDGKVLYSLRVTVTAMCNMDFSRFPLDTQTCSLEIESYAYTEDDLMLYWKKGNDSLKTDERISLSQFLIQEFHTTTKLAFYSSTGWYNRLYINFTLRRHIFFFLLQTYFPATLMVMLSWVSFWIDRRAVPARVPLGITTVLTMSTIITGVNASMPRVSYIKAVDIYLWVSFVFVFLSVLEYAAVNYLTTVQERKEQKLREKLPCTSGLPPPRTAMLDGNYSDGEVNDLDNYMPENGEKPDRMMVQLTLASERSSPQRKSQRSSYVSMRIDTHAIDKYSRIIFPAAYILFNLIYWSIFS
T2 sequence (P62813 28-455): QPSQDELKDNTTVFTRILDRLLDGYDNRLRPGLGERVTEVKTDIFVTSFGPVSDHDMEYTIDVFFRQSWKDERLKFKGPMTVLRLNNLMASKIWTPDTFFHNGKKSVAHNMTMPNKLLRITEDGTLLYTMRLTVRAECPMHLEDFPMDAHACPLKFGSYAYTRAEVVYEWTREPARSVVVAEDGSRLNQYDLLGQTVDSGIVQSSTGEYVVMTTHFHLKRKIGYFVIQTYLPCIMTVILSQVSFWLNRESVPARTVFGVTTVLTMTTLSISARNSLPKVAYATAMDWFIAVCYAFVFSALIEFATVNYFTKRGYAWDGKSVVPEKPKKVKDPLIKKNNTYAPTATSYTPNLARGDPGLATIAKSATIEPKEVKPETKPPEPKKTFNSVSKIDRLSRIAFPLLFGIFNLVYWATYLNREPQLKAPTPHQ
T2 sequence (P63138 25-474 limits assumed): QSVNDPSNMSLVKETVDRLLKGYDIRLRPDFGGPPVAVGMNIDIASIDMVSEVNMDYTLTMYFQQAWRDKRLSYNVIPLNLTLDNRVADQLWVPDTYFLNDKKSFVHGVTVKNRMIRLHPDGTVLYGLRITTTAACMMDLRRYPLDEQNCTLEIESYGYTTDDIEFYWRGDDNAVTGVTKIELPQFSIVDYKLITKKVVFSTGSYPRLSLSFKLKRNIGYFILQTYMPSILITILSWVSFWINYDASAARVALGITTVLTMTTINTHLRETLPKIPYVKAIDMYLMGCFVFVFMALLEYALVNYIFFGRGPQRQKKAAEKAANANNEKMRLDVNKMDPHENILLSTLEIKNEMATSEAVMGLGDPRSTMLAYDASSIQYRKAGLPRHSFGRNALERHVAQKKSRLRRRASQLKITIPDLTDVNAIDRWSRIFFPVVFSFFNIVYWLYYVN
T2 sequence (P18507 40-467 isoform P18507-1 A118C limits assumed): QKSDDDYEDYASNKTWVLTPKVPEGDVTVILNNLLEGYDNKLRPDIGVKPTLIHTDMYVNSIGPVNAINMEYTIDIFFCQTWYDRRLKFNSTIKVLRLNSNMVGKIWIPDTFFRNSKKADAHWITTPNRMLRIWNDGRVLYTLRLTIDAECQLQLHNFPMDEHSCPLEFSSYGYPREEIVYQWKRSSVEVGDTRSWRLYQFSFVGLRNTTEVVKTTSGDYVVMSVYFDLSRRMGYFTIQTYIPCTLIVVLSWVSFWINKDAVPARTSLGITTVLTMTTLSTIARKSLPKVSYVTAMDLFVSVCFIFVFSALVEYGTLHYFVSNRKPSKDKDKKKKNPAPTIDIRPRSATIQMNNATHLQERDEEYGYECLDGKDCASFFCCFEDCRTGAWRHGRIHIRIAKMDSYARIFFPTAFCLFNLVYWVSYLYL
T1 sequence (P62813 28-455): as the sequence (P62813 28-455) above
T1 sequence (P63138 25-474 limits assumed): as the sequence (P63138 25-474 limits assumed) above
T1 sequence (P18507 40-467 isoform P18507-1 limits assumed): as the sequence (P18507 40-467 isoform P18507-1 A118C limits assumed) above, with C79A counted along it

direct activation of wildtype receptors ([1]; 10 μM, no GABA): negligible
response to GABA after MPC100 treatment and Ringer perfusion ([1]; wildtype receptors, 100 μM, 7 min): not significantly enhanced
ratio of 3 μM GABA response amplitudes post- vs. pre-MPC100 treatment ([2]; 100 μM MPC100, 10 min, after methyl-(PEG)11-maleimide pre-treatment): 1.1±0.1
Compound: CC(C)c1cc(CCCC(=O)NCc2ccc(/N=N/c3ccc(C(=O)NCCNC(=O)CCOCCOCCOCCOCCOCCOCCOCCOCCOCCOCCOCCOCCOCCOCCOCCOCCOCCOCCOCCOCCOCCOCCOCCOCCNC(=O)CCN4C(=O)C=CC4=O)cc3)cc2)cc(C(C)C)c1O [MPC100, (E)-N-(82-(2,5-Dioxo-2,5-dihydro-1H-pyrrol-1-yl)-4,80-dioxo-7,10,13,16,19,22,25,28,31,34,37,40,43,46,49,52,55,58,61,64,67,70,73,76-tetracosaoxa-3,79-diazadooctacontyl)-4-((4-((4-(4-hydroxy-3,5-diisopropylphenyl)butanamido)methyl)phenyl)diazenyl)benzamide]
potentiation of the GABA response [1]: smaller than that produced by equimolar trans-dominant MPC088
potentiation after incubation and washout ([2]; 100 μM, ~5-7 min, then Ringer superfusion): persistent potentiation of the GABA response
effect of tethering on potentiating action of diazepam ([2]; data not shown): eliminated the potentiating action of diazepam

response amplitude relative to the 3 μM GABA response ([1]; 3 μM GABA + 10 μM compound): 1.03±0.07
response amplitude relative to the 3 μM GABA response ([1]; 3 μM GABA + 100 μM compound): 1.03±0.11
potentiation of the GABA response [1]: no potentiation of the GABA response
Compound: CCCC(=O)NCc1ccc(/N=N/c2ccc(C(=O)NCCN)cc2)cc1 [MPD021, (E)-N-(2-Aminoethyl)-4-((4-(butyramidomethyl)phenyl)diazenyl)benzamide]

Compound: CC(C)c1cc(CCCC(=O)O)cc(C(C)C)c1O [compound 8]
electrophysiological activity of propofol analogs (FIG. 59), words [1]: poor activity

Compound: COC(=O)c1ccc(/N=N/c2ccc(CNC(=O)CCCc3cc(C(C)C)c(O)c(C(C)C)c3)cc2)cc1 [compound 9]
electrophysiological activity of propofol analogs (FIG. 59), words [1]: poor activity

electrophysiological activity of propofol analogs (FIG. 59), words [1]: active
Compound: CC(C)c1cc(CCCC(=O)Oc2ccc(/N=N/c3ccccc3)cc2)cc(C(C)C)c1O [compound 14, (E)-4-(phenyldiazenyl) phenyl 4-(4-hydroxy-3,5-diisopropylphenyl) butanoate]

electrophysiological activity of propofol analogs (FIG. 59), words [1]: strong GABAAR potentiation
Compound: CC(C)c1cc(CCCC(=O)NCc2ccc(/N=N/c3ccc(C(=O)O)cc3)cc2)cc(C(C)C)c1O [compound 18, (E)-4-((4-((4-(4-hydroxy-3,5-diisopropylphenyl)butanamido)methyl)phenyl)diazenyl) benzoic acid]

Compound: NCc1cc(=O)[nH]o1 [muscimol, reference compound]
Hill coefficient n [3]: 1.2
EC50 [3]: 2 µM
Hill coefficient n [4]: 0.74
EC50 [4]: 4.8 µM

Compound: O=C(CCCC[C@@H]1SC[C@@H]2NC(=O)N[C@@H]21)NCCCCCC(=O)NCc1cc(O)no1 [muscimol-biotin]
Hill coefficient n [3]: 4.4
EC50 [3]: 20 µM
Hill coefficient n [4]: 1.4
EC50 [4]: 385 µM

Compound: (E)-N-(2-Aminoethyl)-4-((4-((4-(4-hydroxy-3,5-diisopropylphenyl)butanamido)methyl)phenyl)diazenyl)benzamide [MPC088]
electrophysiological activity of propofol analogs (FIG. 59), words [1]: strong GABAAR potentiation

Compound: methyl-(PEG)11-maleimide [reference compound]
persistent increase in the 3 μM GABA response ([2]; 1 mM, 10-min treatment): 71±25%

Compound: picrotoxin [reference compound]
effect of antagonist on the MPC088-elicited response ([1]; picrotoxin 100 μg, gabazine 30 μg, bicuculline 100 μM (so in the source)): eliminated
reduction of baseline current ([2]; PTX applied to cells treated with 100 μM MPC100 and washed): 85±7%
reduction of the response to 2 μM GABA+10 μM trans-dominant MPC088 [5]: 94±1%
reduction of the response to 60 μM trans-dominant MPC088 alone [5]: 95±2%
